From patent publication US20250003008A1, “METHODS FOR TREATMENT OF CANCER” (The Johns Hopkins University, priority 2021, published 2025)
Where two headings read alike, the source gives them in different places.

Columns and labels:
[1] = Experimental: PrE0505, a phase 2 single arm multicenter study, enrolled human patients with previously untreated unresectable MPM (NCT02899195, FIG. 1). […] Patients with stable or responding tumors after concurrent therapy, continued on maintenance durvalumab for a maximum duration of one year from the first study treatment. A protocol-defined safety review was performed after enrollment of the first 6 and 15 patients. Pre-specified dose-limiting toxicities during the safety run-in period included any immune-mediated adverse event of ≥grade 4 or any non-resolving immune-mediated adverse event of ≥grade 3 during the first two cycles of therapy.
Imaging was performed every 6 weeks during the concurrent phase of treatment and every 9 weeks during maintenance durvalumab. Best objective response was evaluated by RECIST Version 1.1 criteria modified for mesothelioma. Toxicity was determined using the CTCAE Version 4.03 criteria.
Secondary objectives included safety and tolerability of durvalumab and durvalumab in combination with chemotherapy in subjects with malignant pleural mesothelioma, percentage of patients progression-free at 24 weeks from the time of registration (response coded based on modified RECIST 1.1 criteria for mesothelioma), progression-free survival-measured from the time of study registration until radiologic progression, clinical progression or death, best objective response rate with evaluation continued up to 1 year (response coded based on modified RECIST Version 1.1 criteria for mesothelioma). Exploratory objectives included assessment of tumor baseline PD-L1 expression, the genomic and neoantigen landscape of tumors, dynamics of circulating cell free tumor DNA and other blood-based biomarkers.

[2] = system: malignant pleural mesothelioma; conditions: historical control, phase 3 study; cited from earlier work
[3] = of the patients who received that agent within the regimen

Row | Compound | patients who received a dose reduction due to toxicity [1, 3] | also measured
1 | N.N.O=C([O-])C1(C(=O)[O-])CCC1.[Pt+2] [carboplatin] | 12% | –
2 | N.N.[Cl][Pt][Cl] [cisplatin] | – | survival [2]: 9.3 months
3 | Nc1nc2[nH]cc(CCc3ccc(C(=O)N[C@@H](CCC(=O)O)C(=O)O)cc3)c2c(=O)[nH]1 [pemetrexed] | – | patients who received a dose reduction due to toxicity ([1]; human, in vivo): 2%
4 | durvalumab | no patients | –
